Data on 14 molecules can be found in patent US20230295118A1 (EnhancedBio Inc., priority 2022, published 2023).

What all share (type): cell-based
The subject of test [1] is mantle cell lymphoma cell (Mino or JeKo-1). The test is described as follows: Antiproliferative effect, MTS cell viability assay. The conditions noted are these: 72 h; for IC50: mantle cell lymphoma cell (Mino or JeKo-1), MTS assay, read-out: IC50 (anti-proliferation); for inhibition of cell proliferation of Mino cells: 0-1 μM, result in words. The essentials:
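MTS read-out (formazan absorbance at 490 nm) after 72 h exposure of Mino cells to 0–1 μM compound (0.0001, 0.001, 0.01, 0.1, 1 μM). Palbociclib and abemaciclib served as positive controls.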
On the technique in general: Tetrazolium dyes change colour on reduction, which living cells bring about.

Test [2] has as its target T1, CDK4 (Homo sapiens, UniProt P11802).
T1 construct: endogenous in cells
The test can be described thus: CDK4 degradation (DC50, Dmax).

Test [3] concerns the target T2, CDK6 (Homo sapiens, UniProt Q00534).
T2 construct: endogenous in cells
The test is described as follows: CDK6 degradation (DC50, Dmax).

T2 sequence (Q00534 whole entry): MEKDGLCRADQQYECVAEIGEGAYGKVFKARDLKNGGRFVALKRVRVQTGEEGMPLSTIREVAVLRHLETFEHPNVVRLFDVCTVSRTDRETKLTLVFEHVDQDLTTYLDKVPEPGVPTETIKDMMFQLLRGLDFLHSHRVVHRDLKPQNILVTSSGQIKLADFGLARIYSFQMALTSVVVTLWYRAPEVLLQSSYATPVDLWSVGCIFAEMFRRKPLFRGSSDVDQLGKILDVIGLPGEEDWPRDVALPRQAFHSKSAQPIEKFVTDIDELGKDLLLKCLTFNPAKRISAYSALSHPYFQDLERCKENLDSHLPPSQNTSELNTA
T1 sequence (P11802 whole entry): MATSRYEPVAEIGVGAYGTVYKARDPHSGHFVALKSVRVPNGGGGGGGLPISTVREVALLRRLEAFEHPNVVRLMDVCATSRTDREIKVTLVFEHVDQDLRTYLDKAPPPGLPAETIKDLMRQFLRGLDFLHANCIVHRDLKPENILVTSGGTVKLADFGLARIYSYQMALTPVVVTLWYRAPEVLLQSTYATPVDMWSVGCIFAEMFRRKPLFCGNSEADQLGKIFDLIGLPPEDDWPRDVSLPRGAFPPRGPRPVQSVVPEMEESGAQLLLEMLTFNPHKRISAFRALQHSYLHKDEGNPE

Usually DC50 stands for the midpoint of the concentration-degradation curve. A word on the Dmax: it is the greatest extent of degradation seen. On to `CC(=O)c1c(C)c2cnc(Nc3ccc(N4CCN(C5CCN(C(=O)N6CCC(c7ccc8c(c7)C(=O)N(C7CCC(=O)NC7=O)C8=O)CC6)CC5)CC4)cn3)nc2n(C2CCCC2)c1=O` (stereo not drawn) [Compound 37, 5-(1-(4-(4-(6-((6-acetyl-8-cyclopentyl-5-methyl-7-oxo-7,8-dihydropyrido[2,3-d]pyrimidin-2-yl)amino)pyridin-3-yl)piperazin-1-yl)piperidine-1-carbonyl)piperidin-4-yl)-2-(2,6-dioxopiperidin-3-yl)isoindoline-1,3-dione], for which the IC50 in test [1] is greater than 200 nM. In addition, the DC50 in test [2] and in test [3] was greater than 200 nM each time. The Dmax in test [2] and in test [3] was greater than 50% each time.

Take `CC(=O)c1c(C)c2cnc(Nc3ccc(N4CCN(C5CCN(C(=O)N6CCC(c7ccc8c(c7)CN(C7CCC(=O)NC7=O)C8=O)CC6)CC5)CC4)cn3)nc2n(C2CCCC2)c1=O` (stereo not drawn) [Compound 38, 3-(5-(1-(4-(4-(6-((6-acetyl-8-cyclopentyl-5-methyl-7-oxo-7,8-dihydropyrido[2,3-d]pyrimidin-2-yl)amino)pyridin-3-yl)piperazin-1-yl)piperidine-1-carbonyl)piperidin-4-yl)-1-oxoisoindolin-2-yl)piperidine-2,6-dione]: the IC50 in test [1] is greater than 200 nM. For the same molecule, the DC50 in test [2] and in test [3] was greater than 200 nM in each case. Further, the maximal degradation (Dmax) in test [2] and in test [3] was greater than 50% each time.

Take `CC(=O)c1c(C)c2cnc(Nc3ccc(N4CCN(C5CCN(C(=O)Nc6ccc7c(c6)C(=O)N(C6CCC(=O)NC6=O)C7=O)CC5)CC4)cn3)nc2n(C2CCCC2)c1=O` (stereo not drawn) [Compound 39, 4-(4-(6-((6-acetyl-8-cyclopentyl-5-methyl-7-oxo-7,8-dihydropyrido[2,3-d]pyrimidin-2-yl)amino)pyridin-3-yl)piperazin-1-yl)-N-(2-(2,6-dioxopiperidin-3-yl)-1,3-dioxoisoindolin-5-yl)piperidine-1-carboxamide]: in test [1], the IC50 was less than 50 nM. In addition, the 50% degradation concentration (DC50) in test [2] and in test [3] was 50 to 200 nM each time. Besides, the Dmax in test [2] and in test [3] was greater than 80% in each case.

As for `CC(=O)c1c(C)c2cnc(Nc3ccc(N4CCN(C5CCN(C(=O)Nc6ccc7c(c6)CN(C6CCC(=O)NC6=O)C7=O)CC5)CC4)cn3)nc2n(C2CCCC2)c1=O` (stereo not drawn) [Compound 40, 4-(4-(6-((6-acetyl-8-cyclopentyl-5-methyl-7-oxo-7,8-dibydropyrido[2,3-d]pyrimidin-2-yl)amino)pyridin-3-yl)piperazin-1-yl)-N-(2-(2,6-dioxopiperidin-3-yl)-1-oxoisoindolin-5-yl)piperidine-1-carboxamide], the IC50 in test [1] is less than 50 nM. Also, the 50% degradation concentration (DC50) in test [2] and in test [3] was 50 to 200 nM throughout. In addition, the Dmax in test [2] was greater than 60%; in test [3], greater than 80%.

Regarding `CC(=O)c1c(C)c2cnc(Nc3ccc(N4CCN(CC5CCN(C(=O)Nc6ccc7c(c6)C(=O)N(C6CCC(=O)NC6=O)C7=O)CC5)CC4)cn3)nc2n(C2CCCC2)c1=O` (stereo not drawn) [Compound 41, 4-((4-(6-((6-acetyl-8-cyclopentyl-5-methyl-7-oxo-7,8-dihydropyrido[2,3-d]pyrimidin-2-yl)amino)pyridin-3-yl)piperazin-1-yl)methyl)-N-(2-(2,6-dioxopiperidin-3-yl)-1,3-dioxoisoindolin-5-yl)piperidine-1-carboxamide], the IC50 in test [1] is less than 50 nM. Further, in test [2], the 50% degradation concentration (DC50) was less than 50 nM and the maximal degradation (Dmax) is greater than 80%. In test [3], this molecule showed a DC50 of 50 to 200 nM and a Dmax greater than 80%.

On to `CC(=O)c1c(C)c2cnc(Nc3ccc(N4CCN(CC5CCN(C(=O)Nc6ccc7c(c6)CN(C6CCC(=O)NC6=O)C7=O)CC5)CC4)cn3)nc2n(C2CCCC2)c1=O` (stereo not drawn) [Compound 42, 4-((4-(6-((6-acetyl-8-cyclopentyl-5-methyl-7-oxo-7,8-dihydropyrido[2,3-d]pyrimidin-2-yl)amino)pyridin-3-yl)piperazin-1-yl)methyl)-N-(2-(2,6-dioxopiperidin-3-yl)-1-oxoisoindolin-5-yl)piperidine-1-carboxamide], for which, in test [1], the IC50 fell in the range of 50 to 200 nM. For the same molecule, in test [2], the DC50 lay in the range of 50 to 200 nM and the maximal degradation (Dmax) is greater than 80%. In test [3], this molecule gave a 50% degradation concentration (DC50) of 50 to 200 nM and a Dmax greater than 80%.

As to `CC(=O)c1c(C)c2cnc(Nc3ccc(N4CCN(CCN5CCN(C(=O)Nc6ccc7c(c6)C(=O)N(C6CCC(=O)NC6=O)C7=O)CC5)CC4)cn3)nc2n(C2CCCC2)c1=O` (stereo not drawn) [Compound 43, 4-(2-(4-(6-((6-acetyl-8-cyclopentyl-5-methyl-7-oxo-7,8-dihydropyrido[2,3-d]pyrimidin-2-yl)amino)pyridin-3-yl)piperazin-1-yl)ethyl)-N-(2-(2,6-dioxopiperidin-3-yl)-1,3-dioxoisoindolin-5-yl)piperazine-1-carboxamide], the IC50 in test [1] lay in the range of 50 to 200 nM. In test [2], this molecule had a DC50 of 50 to 200 nM and a maximal degradation (Dmax) greater than 60%. Further, in test [3], the DC50 is 50 to 200 nM and the Dmax was greater than 60%.

As for `CC(=O)c1c(C)c2cnc(Nc3ccc(N4CCN(CCN5CCN(C(=O)Nc6ccc7c(c6)CN(C6CCC(=O)NC6=O)C7=O)CC5)CC4)cn3)nc2n(C2CCCC2)c1=O` (stereo not drawn) [Compound 44], in test [1], the IC50 was 50 to 200 nM. For the same molecule, the DC50 in test [2] and in test [3] was 50 to 200 nM in each case. Also, the Dmax in test [2] and in test [3] was greater than 60% each time.

For the molecule `CC(=O)c1c(C)c2cnc(Nc3ccc(N4CCN(CCC5CCN(C(=O)Nc6ccc7c(c6)C(=O)N(C6CCC(=O)NC6=O)C7=O)CC5)CC4)cn3)nc2n(C2CCCC2)c1=O` (stereo not drawn) [Compound 45, 4-(2-(4-(6-((6-acetyl-8-cyclopentyl-5-methyl-7-oxo-7,8-dihydropyrido[2,3-d]pyrimidin-2-yl)amino)pyridin-3-yl)piperazin-1-yl)ethyl)-N-(2-(2,6-dioxopiperidin-3-yl)-1,3-dioxoisoindolin-5-yl)piperidine-1-carboxamide], the IC50 in test [1] fell in the range of 50 to 200 nM. Besides, in test [2], the DC50 fell in the range of 50 to 200 nM and the Dmax was greater than 60%. In test [3], this molecule came in with a DC50 of 50 to 200 nM and a maximal degradation (Dmax) greater than 60%.

On to `CC(=O)c1c(C)c2cnc(Nc3ccc(N4CCN(CCC5CCN(C(=O)Nc6ccc7c(c6)CN(C6CCC(=O)NC6=O)C7=O)CC5)CC4)cn3)nc2n(C2CCCC2)c1=O` (stereo not drawn) [Compound 46, 4-(2-(4-(6-((6-acetyl-8-cyclopentyl-5-methyl-7-oxo-7,8-dihydropyrido[2,3-d]pyrimidin-2-yl)amino)pyridin-3-yl)piperazin-1-yl)ethyl)-N-(2-(2,6-dioxopiperidin-3-yl)-1-oxoisoindolin-5-yl)piperidine-1-carboxamide], for which, in test [1], the IC50 lay in the range of 50 to 200 nM. For the same molecule, in test [2], the DC50 is greater than 200 nM and the Dmax is greater than 60%. Besides, in test [3], the 50% degradation concentration (DC50) lay within 50 to 200 nM and the Dmax was greater than 60%.

In the case of `CC(=O)c1c(C)c2cnc(Nc3ccc(N4CCN(CCNc5ccc6c(c5)C(=O)N(C5CCC(=O)NC5=O)C6=O)CC4)cn3)nc2n(C2CCCC2)c1=O` (stereo not drawn) [Compound 47, 5-((2-(4-(6-((6-acetyl-8-cyclopentyl-5-methyl-7-oxo-7,8-dihydropyrido[2,3-d]pyrimidin-2-yl)amino)pyridin-3-yl)piperazin-1-yl)ethyl)amino)-2-(2,6-dioxopiperidin-3-yl)isoindoline-1,3-dione], in test [1], the IC50 was less than 50 nM and the “inhibition of cell proliferation of Mino cells” value was “dose-dependent inhibition of cell proliferation”. For the same molecule, in test [2], the DC50 was less than 50 nM and the Dmax is greater than 80%. In test [3], this molecule returned a DC50 of less than 50 nM and a Dmax greater than 80%.

Take `CC(=O)c1c(C)c2cnc(Nc3ccc(N4CCN(CCNc5ccc6c(c5)CN(C5CCC(=O)NC5=O)C6=O)CC4)cn3)nc2n(C2CCCC2)c1=O` (stereo not drawn) [Compound 48, 3-(5-((2-(4-(6-((6-acetyl-8-cyclopentyl-5-methyl-7-oxo-7,8-dihydropyrido[2,3-d]pyrimidin-2-yl)amino)pyridin-3-yl)piperazin-1-yl)ethyl)amino)-1-oxoisoindolin-2-yl)piperidine-2,6-dione]: in test [1], the IC50 is less than 50 nM. Moreover, the DC50 in test [2] and in test [3] was less than 50 nM each time. Moreover, the maximal degradation (Dmax) in test [2] and in test [3] was greater than 80% throughout.

For `CC(=O)c1c(C)c2cnc(Nc3ccc(N4CCN(CCCNc5ccc6c(c5)CN(C5CCC(=O)NC5=O)C6=O)CC4)cn3)nc2n(C2CCCC2)c1=O` (stereo not drawn) [Compound 50, 3-(5-((3-(4-(6-((6-acetyl-8-cyclopentyl-5-methyl-7-oxo-7,8-dihydropyrido[2,3-d]pyrimidin-2-yl)amino)pyridin-3-yl)piperazin-1-yl)propyl)amino)-1-oxoisoindolin-2-yl)piperidine-2,6-dione], in test [1], the IC50 is less than 50 nM and the “inhibition of cell proliferation of Mino cells” value was “dose-dependent inhibition of cell proliferation”. In test [2], this molecule had a DC50 of less than 50 nM and a maximal degradation (Dmax) greater than 80%. In test [3], this molecule yielded a DC50 of less than 50 nM and a maximal degradation (Dmax) greater than 80%.

Turning to `CC(=O)c1c(C)c2cnc(Nc3ccc(N4CCN(CCCNc5cc6c(cc5F)C(=O)N(C5CCC(=O)NC5=O)C6=O)CC4)cn3)nc2n(C2CCCC2)c1=O` (stereo not drawn) [Compound 51, 5-((3-(4-(6-((6-acetyl-8-cyclopentyl-5-methyl-7-oxo-7,8-dihydropyrido[2,3-d]pyrimidin-2-yl)amino)pyridin-3-yl)piperazin-1-yl)propyl)amino)-2-(2,6-dioxopiperidin-3-yl)-6-fluoroisoindoline-1,3-dione], the IC50 in test [1] is less than 50 nM. For the same molecule, in test [2], the DC50 was 50 to 200 nM and the maximal degradation (Dmax) was greater than 80%. Moreover, in test [3], the half-maximal degradation concentration (DC50) is 50 to 200 nM and the greatest degradation seen (Dmax) was greater than 80%.
